In this assay the target is recombinant human GST-SYK (Homo sapiens (Human), UniProt P43405). Put plainly: Homogeneous Time-Resolved Fluorescence (HTRF) Assay for the Recombinant Human Syk Enzyme. The format is biochemical. The note with it: GST-SYK 5 pM, ATP 25 μM, biotinylated substrate peptide 250 nM, HTRF signal. The method, then:
Homogeneous Time-Resolved Fluorescence (HTRF) Assay for the Recombinant Human Syk Enzyme
A recombinant GST-hSYK fusion protein was used to measure potency of compounds to inhibit human Syk activity. The recombinant human GST-SYK (Carna Biosciences #08-176) (5 pM final concentration) was incubated with various concentrations of the inhibitor diluted in DMSO (0.1% final concentration) for 10 minutes at room temperature in 15 mM Tris-HCl (pH 7.5), 0.01% tween 20, 2 mM DTT in 384 well plate format. To initiate the reaction the biotinylated substrate peptide (250 nM final concentration) that contains the phosphorylation site for Syk was added with magnesium (5 mM final concentration) and ATP (25 μM final concentration). Final volume of the reaction was 10 μL. Phosphorylation of the peptide was allowed to proceed for 45′ at room temperature. To quench the reaction and detect the phosphorylated product, 2 nM of a Europium-anti-phosphotyrosine antibody (Perkin Elmer #AD0161) and 70 nM SA-APC (Perkin-Elmer #CR130-100) were added together in 15 mM Tris pH 7.5, 40 mM EDTA, 0.01% tween 20. Final volume of the quenching solution was 10 μL.
The resulting HTRF signal was measured after 30 minutes on an EnVision (Perkin-Elmer) reader using a time-resolved fluorescence protocol. Table A below lists activities as IC50 values (nM) for representative compounds of the invention.

The structures appear in SMILES notation.

Broadly, the IC50 is the point on the concentration scale where inhibition reaches its midpoint.

For the compound `CCOC(=O)[C@H]1CC[C@](O)(c2ncc(-c3cc(Nc4nccc(C(F)(F)F)n4)cc(-c4cn[nH]c4)c3)s2)C[C@H]1C` (racemic) [Example 1.1, Ethyl rel-(1S,2R,4R or S)-4-(5-(3-(1H-pyrazol-4-yl)-5-((4-(trifluoromethyl)pyrimidin-2-yl)amino)phenyl)thiazol-2-yl)-4-hydroxy-2-methylcyclohexanecarboxylate], the concentration for half-maximal inhibition (IC50) turned out to be 162 nM.

As to `C[C@@H]1C[C@@](O)(c2ncc(-c3cc(Nc4nccc(C(F)(F)F)n4)cc(-c4cn[nH]c4)c3)s2)CC[C@@H]1C(=O)O` (racemic) [Example 1.2, rel-(1S,2R,4R or S)-4-(5-(3-(1H-pyrazol-4-yl)-5-((4-(trifluoromethyl)pyrimidin-2-yl)amino)phenyl)thiazol-2-yl)-4-hydroxy-2-methylcyclohexanecarboxylic acid], the half-inhibitory concentration (IC50) was found to be 0.959 nM.

Turning to `C[C@@H]1C[C@@](O)(c2ncc(-c3cc(Nc4nccc(C(F)(F)F)n4)cc(-c4cn[nH]c4)c3)s2)CC[C@@H]1C(N)=O` (racemic) [Example 1.3, rel-(1S,2R,4R or S)-4-(5-(3-(1H-pyrazol-4-yl)-5-((4-(trifluoromethyl)pyrimidin-2-yl)amino)phenyl)thiazol-2-yl)-4-hydroxy-2-methylcyclohexanecarboxamide], the IC50 came to 2.95 nM.

Regarding `COc1cc(Nc2nccc(C(F)(F)F)n2)cc(-c2cnc([C@@]3(O)CC[C@H](C(=O)O)C(C)(C)C3)s2)c1` (single isomer, unassigned) [Example 1.5, (1R,4S or 1S,4R) 4-Hydroxy-4-(5-(3-methoxy-5-((4-(trifluoromethyl)pyrimidin-2-yl)amino)phenyl)thiazol-2-yl)-2,2-dimethylcyclohexanecarboxylic acid], the half-maximal inhibitory concentration (IC50) amounted to 1.4 nM.

Regarding `CC1(C)CC(O)(c2ncc(-c3cc(C#N)cc(Nc4nccc(C(F)(F)F)n4)c3)s2)CCC1C(=O)O` (single isomer, unassigned) [Example 1.8, (1R,4S or 1S,4R)-4-[5-(3-cyano-5-{[4-(trifluoromethyl)pyrimidin-2-yl]amino}phenyl)-1,3-thiazol-2-yl]-4-hydroxy-2,2-dimethylcyclohexanecarboxylic acid], the IC50 came to 5.77 nM.

`CC1(C)CC(O)(c2ncc(-c3cc(Nc4nccc(C(F)(F)F)n4)cc(S(C)(=O)=O)c3)s2)CCC1C(=O)O` (single isomer, unassigned) [Example 1.9, (1R,4S or 1S,4R)-4-hydroxy-2,2-dimethyl-4-{5-[3-(methylsulfonyl)-5-{[4-(trifluoromethyl)pyrimidin-2-yl]amino}phenyl]-1,3-thiazol-2-yl}cyclohexanecarboxylic acid]: the concentration for half-maximal inhibition (IC50) stood at 5.1 nM.

As to `Cn1cc(-c2cc(Nc3nccc(C(F)(F)F)n3)cc(-c3cnc([C@@]4(O)CC[C@H](C(=O)O)C(C)(C)C4)s3)c2)cn1` (single isomer, unassigned) [Example 2.1, (1R,4S or 1S,4R)-4-Hydroxy-2,2-dimethyl-4-(5-(3-(1-methyl-1H-pyrazol-4-yl)-5-((4-(trifluoromethyl)pyrimidin-2-yl)amino)phenyl)thiazol-2-yl)cyclohexanecarboxylic acid], the 50% inhibitory concentration (IC50) turned out to be 48 nM.

With `CC1(C)C[C@](O)(c2ncc(-c3cc(Nc4nccc(C(F)(F)F)n4)cc(-c4cnn(C(C)(C)C)c4)c3)s2)CC[C@H]1C(=O)O` (single isomer, unassigned) [Example 2.2, (1R,4S or 1S,4R)-4-{5-[3-(1-tert-butyl-1H-pyrazol-4-yl)-5-{[4-(trifluoromethyl)pyrimidin-2-yl]amino}phenyl]-1,3-thiazol-2-yl}-4-hydroxy-2,2-dimethylcyclohexanecarboxylic acid], the IC50 amounted to 285 nM.

Take `CC(C)n1cc(-c2cc(Nc3nccc(C(F)(F)F)n3)cc(-c3cnc([C@]4(O)CC[C@@H](C(=O)O)C(C)(C)C4)s3)c2)cn1` (single isomer, unassigned) [Example 2.3, (1R,4S or 1S,4R)-4-hydroxy-2,2-dimethyl-4-[5-(3-[1-(1-methylethyl)-1H-pyrazol-4-yl]-5-{[4-(trifluoromethyl)pyrimidin-2-yl]amino}phenyl)-1,3-thiazol-2-yl]cyclohexanecarboxylic acid]: the concentration for half-maximal inhibition (IC50) stood at 149 nM.

Regarding `CCn1cc(-c2cc(Nc3nccc(C(F)(F)F)n3)cc(-c3cnc([C@]4(O)CC[C@@H](C(=O)O)C(C)(C)C4)s3)c2)cn1` (single isomer, unassigned) [Example 2.4, (1R,4S or 1S,4R)-4-{5-3-(1-ethyl-1H-pyrazol-4-yl)-5-{[4-(trifluoromethyl)pyrimidin-2-yl]amino}phenyl]-1,3-thiazol-2-yl}-4-hydroxy-2,2-dimethylcyclohexanecarboxylic acid], the IC50 came out at 63.5 nM.

On to `CC1(C)C[C@](O)(c2ncc(-c3cc(Nc4nccc(C(F)(F)F)n4)cc(-c4ccncc4)c3)s2)CC[C@H]1C(=O)O` (single isomer, unassigned) [Example 2.5, (1R,4S or 1S,4R)-4-hydroxy-2,2-dimethyl-4-[5-(3-pyridin-4-yl-5-{[4-(trifluoromethyl)pyrimidin-2-yl]amino}phenyl)-1,3-thiazol-2-yl]cyclohexanecarboxylic acid], for which the IC50 was found to be 1.56 nM.

Turning to `CC1(C)C[C@](O)(c2ncc(-c3cc(Nc4nccc(C(F)(F)F)n4)cc(-c4ccc(F)cc4)c3)s2)CC[C@H]1C(=O)O` (single isomer, unassigned) [Example 2.6, (1R,4S or 1S,4R)-4-[5-(4′-fluoro-5-{[4-(trifluoromethyl)pyrimidin-2-yl]amino}biphenyl-3-yl)-1,3-thiazol-2-yl]-4-hydroxy-2,2-dimethylcyclohexanecarboxylic acid], the 50% inhibitory concentration (IC50) amounted to 20.7 nM.

Take `COc1ccc(-c2cc(Nc3nccc(C(F)(F)F)n3)cc(-c3cnc([C@]4(O)CC[C@@H](C(=O)O)C(C)(C)C4)s3)c2)cn1` (single isomer, unassigned) [Example 2.7, (1R,4S or 1S,4R)-4-hydroxy-4-{5-[3-(6-methoxypyridin-3-yl)-5-{[4-(trifluoromethyl)pyrimidin-2-yl]amino}phenyl]-1,3-thiazol-2-yl}-2,2-dimethylcyclohexanecarboxylic acid]: the half-inhibitory concentration (IC50) worked out at 3.68 nM.

On to `CC1(C)C[C@](O)(c2ncc(-c3cc(Nc4nccc(C(F)(F)F)n4)cc(-c4ccsc4)c3)s2)CC[C@H]1C(=O)O` (single isomer, unassigned) [Example 2.8, (1R,4S or 1S,4R)-4-hydroxy-2,2-dimethyl-4-[5-(3-thiophen-3-yl-5-{[4-(trifluoromethyl)pyrimidin-2-yl]amino}phenyl)-1,3-thiazol-2-yl]cyclohexanecarboxylic acid], for which the IC50 turned out to be 11.7 nM.

As to `CC1(C)C[C@](O)(c2ncc(-c3cc(Nc4nccc(C(F)(F)F)n4)cc(-c4cccc(C(=O)NC5CC5)c4)c3)s2)CC[C@H]1C(=O)O` (single isomer, unassigned) [Example 2.9, (1R,4S or 1S,4R)-4-{5-[3′-(cyclopropylcarbamoyl)-5-{[4-(trifluoromethyl)pyrimidin-2-yl]amino}biphenyl-3-yl]-1,3-thiazol-2-yl}-4-hydroxy-2,2-dimethylcyclohexanecarboxylic acid], the IC50 stood at 2.78 nM.
